In ChEMBL document CHEMBL6153048, “Synthesis and pharmacological evaluation of natural product diphyllin derivatives against head and neck squamous cell carcinoma” (Eur J Med Chem, 2025):

Legend:
[1] = tested on: CAL-27; experiment: Antiproliferative activity against human CAL-27 cells assessed as inhibition rate at 0.1 uM incubated for 72 hrs by MTT assay relative to control; format: functional
[2] = tested on: SCC-9; experiment: Antiproliferative activity against human SCC-9 cells assessed as inhibition rate at 0.1 uM incubated for 72 hrs by MTT assay relative to control; format: functional
[3] = tested on: SCC-25; experiment: Antiproliferative activity against human SCC-25 cells assessed as inhibition rate at 0.1 uM incubated for 72 hrs by MTT assay relative to control; format: functional
[4] = Antiproliferative activity against human WSU HN-30 cells assessed as inhibition rate at 0.1 uM incubated for 72 hrs by MTT assay relative to control; format: functional; details: WSU-HN30
[5] = Antiproliferative activity against human L02 cells assessed as inhibition rate at 0.1 uM incubated for 72 hrs by MTT assay relative to control; format: toxicity, cell-based
[6] = Antiproliferative activity against human HN-6 cells assessed as inhibition rate at 0.1 uM incubated for 72 hrs by MTT assay relative to control; format: functional
[7] = Cytotoxicity against human L02 cells incubated for 72 hrs by MTT assay; format: toxicity, cell-based
[8] = Cytotoxicity against human […] incubated for 72 hrs by MTT assay; format: functional, cell-based; details: WSU-HN30, 72 h
[9] = Cytotoxicity against human HN-6 cells incubated for 72 hrs by MTT assay; format: functional, cell-based; details: HN-6, 72 h
[10] = tested on: SCC-25; experiment: Cytotoxicity against human SCC-25 cells incubated for 72 hrs by MTT assay; format: functional, cell-based; details: SCC-25, 72 h
[11] = tested on: SCC-9; experiment: Cytotoxicity against human SCC-9 cells incubated for 72 hrs by MTT assay; format: functional, cell-based; details: SCC-9, 72 h
[12] = tested on: CAL-27; experiment: Cytotoxicity against human CAL-27 cells incubated for 72 hrs by MTT assay; format: functional, cell-based; details: CAL-27, 72 h

Compound | inhibition at 0.1 µM [1] [%] | inhibition at 0.1 µM [2] [%] | inhibition at 0.1 µM [3] [%] | inhibition at 0.1 µM [4] [%] | inhibition at 72 h, 0.1 µM [5] [%] | inhibition at 0.1 µM [6] [%] | IC50 at 72 h [7] [µM] | IC50 [8] [µM] | IC50 [9] [µM] | IC50 [10] [µM] | IC50 [11] [µM] | IC50 [12] [µM]
COc1cc2c(NC(=O)C(F)(F)[C@]3(O)O[C@@H]4CO[C@@H](c5ccsc5)O[C@H]4[C@H](O)[C@H]3O)c3c(c(-c4ccc5c(c4)OCO5)c2cc1OC)C(=O)OC3 | 25.8 | 16.6 | 23.6 | 14 | 3.32 | 14.5 | – | – | – | – | – | –
COc1cc2c(OCCOCCNC(=O)C(F)(F)[C@]3(O)O[C@H](CO)[C@@H](O)[C@H](O)[C@H]3O)c3c(c(-c4ccc5c(c4)OCO5)c2cc1OC)C(=O)OC3 | 1.73 | 13.9 | 10.2 | 8.25 | 1.74 | 4.3 | – | – | – | – | – | –
COc1cc2c(O[C@@H]3O[C@@H]4CO[C@@H](c5ccc(SC)cc5)O[C@H]4[C@H](O)[C@H]3O)c3c(c(-c4ccc5c(c4)OCO5)c2cc1OC)C(=O)OC3 | 35.9 | 41.1 | 35.4 | 47.4 | 6.84 | 57.1 | – | – | – | – | – | –
COc1cc2c(O[C@@H]3O[C@@H]4CO[C@@H](C5CCCC5)O[C@H]4[C@H](O)[C@H]3O)c3c(c(-c4ccc5c(c4)OCO5)c2cc1OC)C(=O)OC3 | 8.02 | 42 | 49.1 | 40.5 | 9.37 | 54.2 | – | – | – | – | – | –
COc1cc([C@@H]2c3cc4c(cc3[C@@H](O[C@@H]3O[C@@H]5CO[C@@H](C)O[C@H]5[C@H](O)[C@H]3O)[C@H]3COC(=O)[C@H]23)OCO4)cc(OC)c1O [ETOPOSIDE] | – | – | – | – | – | – | > 10 | 1.7 | > 10 | 0.693 | 3.7 | 7.49
COc1cc2c(OCCOCCNC(=O)[C@@H]3CCC(=O)N3)c3c(c(-c4ccc5c(c4)OCO5)c2cc1OC)C(=O)OC3 | 29.5 | 8.65 | 18.5 | 15.9 | 6.04 | 19.8 | – | – | – | – | – | –
COc1cc2c(OCCOCCNC(=O)C3CNCC(F)(F)C3)c3c(c(-c4ccc5c(c4)OCO5)c2cc1OC)C(=O)OC3 (stereo not drawn) | 2.03 | 25.6 | 23.2 | 11.7 | 10.6 | 10.2 | – | – | – | – | – | –
COc1cc2c(NC(=O)C(F)(F)[C@]3(O)O[C@H](CO)[C@@H](O)[C@H](O)[C@H]3O)c3c(c(-c4ccc5c(c4)OCO5)c2cc1OC)C(=O)OC3 | 27.6 | 19.4 | 28.2 | 12.3 | 4.58 | 13.1 | – | – | – | – | – | –
COc1cc2c(OCCOCCNC(=O)[C@H]3[C@@H]4CNC[C@@H]43)c3c(c(-c4ccc5c(c4)OCO5)c2cc1OC)C(=O)OC3 | 2.26 | 17.5 | 14.7 | 6.67 | 3.53 | 7.38 | – | – | – | – | – | –
COc1cc2c(O[C@@H]3O[C@@H]4CO[C@@H](C5CCOCC5)O[C@H]4[C@H](O)[C@H]3O)c3c(c(-c4ccc5c(c4)OCO5)c2cc1OC)C(=O)OC3 | 35.5 | 35.4 | 24.6 | 28.9 | 6.66 | 58.9 | – | – | – | – | – | –
COc1cc2c(OCCN)c3c(c(-c4ccc5c(c4)OCO5)c2cc1OC)C(=O)OC3 | 6.31 | 30.4 | 10.8 | 18.9 | 7.89 | 28.2 | – | – | – | – | – | –
COc1cc2c(OCCOCCOCCN)c3c(c(-c4ccc5c(c4)OCO5)c2cc1OC)C(=O)OC3 | 67.2 | 31.5 | 51.1 | 25.2 | 18.2 | 29.5 | 7.87 | 0.123 | 0.0946 | 0.0926 | 0.13 | 0.0406
COc1cc2c(O[C@@H]3O[C@@H]4CO[C@@H](c5csc(Br)c5)O[C@H]4[C@H](O)[C@H]3O)c3c(c(-c4ccc5c(c4)OCO5)c2cc1OC)C(=O)OC3 | 78.3 | 72.3 | 58.4 | 49.9 | 20.8 | 57.6 | 3.68 | 0.00733 | 0.00607 | 0.0864 | 0.0164 | 0.0145
COc1cc2c(OCCOCCNC(=O)C3=C[C@H](O)[C@H](O)[C@@H](O)C3)c3c(c(-c4ccc5c(c4)OCO5)c2cc1OC)C(=O)OC3 | 31.1 | 22.2 | 31.4 | 16.2 | 5.67 | 27.2 | – | – | – | – | – | –
COc1cc2c(O[C@@H]3O[C@@H]4CO[C@@H](c5cccc(C(F)(F)F)c5)O[C@H]4[C@H](O)[C@H]3O)c3c(c(-c4ccc5c(c4)OCO5)c2cc1OC)C(=O)OC3 | 37.4 | 37.5 | 33.6 | 40.9 | 9.53 | 60.6 | – | – | – | – | – | –
COc1cc2c(O[C@@H]3O[C@@H]4CO[C@@H](c5ccc(C)s5)O[C@H]4[C@H](O)[C@H]3O)c3c(c(-c4ccc5c(c4)OCO5)c2cc1OC)C(=O)OC3 | 32.4 | 46.2 | 41 | 40.1 | 9.5 | 57.2 | – | – | – | – | – | –
COc1cc2c(NC(=O)C(F)(F)[C@]3(OCc4ccccc4)O[C@H](COCc4ccccc4)[C@@H](OCc4ccccc4)[C@H](OCc4ccccc4)[C@H]3OCc3ccccc3)c3c(c(-c4ccc5c(c4)OCO5)c2cc1OC)C(=O)OC3 | 26.1 | 14.7 | 17.8 | 8.5 | 3.29 | 12.7 | – | – | – | – | – | –
COc1cc2c(OCCOCCNC(=O)C3(F)CNC3)c3c(c(-c4ccc5c(c4)OCO5)c2cc1OC)C(=O)OC3 | 9.95 | 32.6 | 19.5 | 10.7 | 3.51 | 10.8 | – | – | – | – | – | –
COc1cc2c(OCCOCCNC(=O)CON)c3c(c(-c4ccc5c(c4)OCO5)c2cc1OC)C(=O)OC3 | 33 | 18.7 | 31.8 | 23.5 | 9.46 | 18.7 | – | – | – | – | – | –
CCC(CC)[C@@H]1OC[C@H]2O[C@@H](Oc3c4c(c(-c5ccc6c(c5)OCO6)c5cc(OC)c(OC)cc35)C(=O)OC4)[C@H](O)[C@@H](O)[C@@H]2O1 | 24.3 | 43.2 | 44.9 | 38.3 | 8.83 | 55.1 | – | – | – | – | – | –
COc1cc2c(OCCOCCNC(=O)[C@@H]3CC(F)(F)CN3)c3c(c(-c4ccc5c(c4)OCO5)c2cc1OC)C(=O)OC3 | 2.62 | 35.3 | 41.7 | 19.9 | 8.13 | 22.3 | – | – | – | – | – | –
